Assay results from patent US8338565B2, “Macrocyclic compounds for inhibition of tumor necrosis factor alpha” (Ensemble Therapeutics Corporation, priority 2008, dated 2012).
Like-named read-outs stand apart in the source and are kept apart here. Numbered stars: 1 amine (or outer) side, 2 acyl side, 3 side chain; on linkers, the order of the positions; unused ones are H or OH. Bridge positions count the residues as written; N and C are the ends. Square brackets hold non-standard residues; d marks the D form. Peptide text beside a SMILES is read from it. Tartaroyl(2R,3R-(OAc)2) = CC(=O)O[C@@H](C(=O)[*:1])[C@@H](OC(C)=O)C(=O)[*:2]; Bip(4'-Cl) = N[C@@H](Cc1ccc(-c2ccc(Cl)cc2)cc1)C(=O)O; Phe(4-CF3) = N[C@@H](Cc1ccc(C(F)(F)F)cc1)C(=O)O; Phe(2,4-Cl2) = N[C@@H](Cc1ccc(Cl)cc1Cl)C(=O)O; dPhe(4-NH2) = Nc1ccc(C[C@@H](N)C(=O)O)cc1; Phe(4-Br) = N[C@@H](Cc1ccc(Br)cc1)C(=O)O; Phe(4-NH2) = Nc1ccc(C[C@H](N)C(=O)O)cc1; d(hPhe) = N[C@H](CCc1ccccc1)C(=O)O; d2Thi = N[C@H](Cc1cccs1)C(=O)O; Suc = O=C(CCC(=O)[*:2])[*:1]; βAla = NCCC(=O)O

Assays:
[1] = biological target: T1, TNFα / TNFα receptor (TNFα R1/Fc) (Homo sapiens, UniProt P01375); experiment: Inhibition of binding of TNFα to the TNFα receptor (plate ELISA competition); settings: Table 2
T1 construct: purchased R&D Systems
Procedure, shortened: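 Compound dilutions were preincubated 30 min at RT with 8.33 nM TNFα R1/Fc in PBST with 2% DMSO, then added to wells coated with 15 nM TNFα for 30 min. Bound receptor was detected with HRP anti-human Fc and TMB, read as A450.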

[2] = test system: TNF-α (degradation of IkB in HeLa cells or A431 cells); experiment: Human cell-based assay: inhibition of TNF-α induced degradation of IkB; settings: for inhibition at 10 µM: read-out: Inhibition at Various Compound Concentrations, 10 μM; for inhibition at 5 µM: read-out: Inhibition at Various Compound Concentrations, 5 μM
Description: We used a human cell-based assay to determine the TNF-α antagonistic activity of the compounds of this invention based upon the ability of the compounds to inhibit the degradation of IkB in those cells. The assay was performed on either HeLa cells or A431 cells.
On Day 1, wells of a 24-well tissue culture plate were seeded with cells that had been harvested from cultures in T-75 flasks by standard trypsin/EDTA treatment. The harvested cells were suspended in EMEM/10% FBS/P/S (100,000 HeLa cells/mL or 200,000 A431 cells/mL) and 1 mL aliquots were placed into each well. The cells were incubated overnight at 37° C. in a humidified CO2 incubator. On day 2, the cells were approximately 95% confluent.
Test and control compounds were diluted to a 1 mM solution by dilution in DMSO. The assay was run in Costar tubes. Into each tube was placed 2.5 or 5.0 μL of test compound (for testing 5 μM and 10 μM concentrations, respectively), 2.5 μL of 100× TNF-α solution (200 ng/mL TNF-α in EMEM containing 1μg/mL cycloheximide) and, for those tubes containing 2.5 μL of compound, an additional 2.5 μL of DMSO. To each tube was then added 0.5 mL of EMEM containing 1μg/mL cycloheximide. Negative control tubes contained either a) no compound, or b) no TNF-α. Tubes were then incubated for 30 minutes at room temperature.
Once incubation had begun, the media was aspirated from the cells in the 24-well plates. Sufficient EMEM/10% FBS/P/S containing 1 ug/mL cycloheximide was then added to cover the cells (approximately 3 mL) and the cells were retuned to the 37° C. humidified CO2 incubator until compound incubation was completed. The media was then aspirated from the cells, 0.2 mL of the compound solution was added and the cells re-incubated at 37° C. for 30 minutes. The plates were then placed on ice, the compound solution was aspirated from each well, and the cells washed once with 1 mL of cold PBS. Cells were then fixed with 500 μL of 3.7% formaldehyde in PBS (“fix solution”) for 20 minutes at room temperature. The fix solution was decanted and the cells permeabilized by 4× washing with 500 uL PBS/0.1% Triton X-100. After the final permeabilization wash, the cells were treated with 500 uL of Odyssey blocking buffer (OBB) and incubated at room temperature with shaking for 90 minutes.
The OBB was decanted and then to each well was then added 125 μL each of mouse anti-IkB CST#4814 (diluted 1:200 in OBB) and rabbit anti-beta-tubulin CST#2146 (diluted 1:200 in OBB). Plates were sealed with parafin and incubated overnight at room temperature with shaking.
On day 3, the antibody solution was removed from the cells and the cells were washed 5× with 0.5 mL PBST for five minutes each on a shaker. To each well was then aded 125 μL of a secondary antibody solution containing goat anti-mouse IgG-IRDye 800 and goat anti-rabbit IgG-IRDye (each diluted 1:500 in OBB+0.2% Tween 20). The plates were covered with aluminum foil and incubated for 1 hour at room temperature with shaking. The secondary antibody solution was removed and the cells washed 3× with 0.5 mL PBST for five minutes each on a shaker. Cells were then scanned by LICOR with the following settings: 700 intensity=6.0, 800 intensity=6.5; microplate2 settings with 3.0 mm offset; 169 resolution. LICOR values were fitted to an equation for a sigmoidal curve and IC50 values calculated from the fitted parameters. […] Blank cells indicate that the compound was not tested at that concentration. Certain compounds that were tested more than once and the values reflect the average of the multiple tests.

[3] = read-out: Activity (IC50, inhibition of TNFα binding to TNFα R1/Fc)
[4] = 10 μM compound, HeLa or A431 cells
[5] = 5 μM compound, HeLa or A431 cells
[6] = Activity (IC50, inhibition of TNFα binding to TNFα R1/Fc)

T1 sequence (P01375 77-233 limits assumed, species assumed): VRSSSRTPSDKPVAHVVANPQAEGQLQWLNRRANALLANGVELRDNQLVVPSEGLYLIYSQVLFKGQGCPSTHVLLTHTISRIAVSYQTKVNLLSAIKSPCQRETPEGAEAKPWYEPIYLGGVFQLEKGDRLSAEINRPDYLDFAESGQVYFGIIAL

Compound | IC50 [1, 3] [µM] | inhibition at 10 µM [2, 4] [%] | inhibition at 5 µM [2, 5] [%] | IC50 [1, 6] [µM] | inhibition at 5 µM [2] [%] | inhibition at 10 µM [2] [%]
C[C@@H](NC(=O)[C@@H]1Cc2ccc(cc2)OCC(=O)N[C@H](Cc2cccs2)C(=O)N[C@@H](Cc2ccc(-c3ccccc3)cc2)C(=O)N[C@H](CCc2ccccc2)C(=O)N1)C(=O)O [Compound 305] | < 10 | < 10 |  |  |  | 
CC(=O)O[C@H]1C(=O)Nc2ccc(cc2)C[C@H](C(=O)N[C@@H](Cc2ccccc2)C(=O)O)NC(=O)[C@@H](Cc2ccccc2)NC(=O)[C@H](Cc2ccc(Br)cc2)NC(=O)[C@@H](Cc2cccs2)NC(=O)[C@@H]1OC(C)=O [Compound 410] ([d2Thi][Phe(4-Br)][dF][dPhe(4-NH2)]F-OH; linker N-4 via Tartaroyl(2R,3R-(OAc)2)) | < 10 | 10 to 50 | < 10 |  |  | 
O=C1CCC(=O)N[C@H](CCc2ccccc2)C(=O)N[C@@H](Cc2ccc(Br)cc2)C(=O)N[C@H](Cc2ccccc2)C(=O)N[C@@H](C(=O)O)Cc2ccc(cc2)N1 [Compound 111] ([d(hPhe)][Phe(4-Br)][dF][dPhe(4-NH2)]-OH; linker N-4 via Suc) | 10 to 30 | < 10 |  |  |  | 
COC(=O)[C@H](CC(=O)O)NC(=O)[C@@H]1Cc2ccc(cc2)OCC(=O)N[C@@H](Cc2cccs2)C(=O)N[C@H](Cc2ccc(-c3ccccc3)cc2)C(=O)N[C@@H](Cc2ccccc2)C(=O)N1 [Compound 388] | < 10 | 10 to 50 | < 10 |  |  | 
O=C(O)CCNC(=O)[C@@H]1Cc2ccc(cc2)OCC(=O)N[C@@H](Cc2cccs2)C(=O)N[C@@H](Cc2ccc(-c3ccccc3)cc2)C(=O)N[C@@H](Cc2ccccc2)C(=O)N1 [Compound 339] | < 10 | 10 to 50 | < 10 |  |  | 
O=C(O)[C@@H]1Cc2ccc(cc2)NC(=O)[C@H](O)[C@@H](O)C(=O)N[C@H](Cc2ccsc2)C(=O)N[C@@H](Cc2ccc(-c3ccccc3)cc2)C(=O)N[C@H](Cc2ccccc2)C(=O)N1 [Compound 318] | < 10 | 10 to 50 | < 10 |  |  | 
C[C@H](NC(=O)[C@@H]1Cc2ccc(cc2)OCC(=O)N[C@@H](Cc2cccs2)C(=O)N[C@H](Cc2ccc(-c3ccccc3)cc2)C(=O)N[C@@H](Cc2ccccc2)C(=O)N1)C(=O)O [Compound 385] | < 10 | > 80 | 50 to 80 |  |  | 
O=C1CCC(=O)N[C@H](CCc2ccccc2)C(=O)N[C@@H](Cc2ccc(-c3ccc(Cl)cc3)cc2)C(=O)N[C@H](Cc2ccccc2)C(=O)N[C@H](C(=O)O)Cc2ccc(cc2)N1 [Compound 116] ([d(hPhe)][Bip(4'-Cl)][dF][Phe(4-NH2)]-OH; linker N-4 via Suc) | < 10 | < 10 | 10 to 50 |  |  | 
O=C1COc2ccc(cc2)C[C@@H](C(=O)NC2(C(=O)O)CC2)NC(=O)[C@@H](CCc2ccccc2)NC(=O)[C@H](Cc2ccc(-c3ccccc3)cc2)NC(=O)[C@@H](Cc2cccs2)N1 [Compound 299] |  |  |  | < 10 | < 10 | < 10
NCCCC(=O)N[C@@H]1CC(=O)N[C@H](Cc2cccs2)C(=O)N[C@@H](Cc2ccc(-c3ccccc3)cc2)C(=O)N[C@H](Cc2ccccc2)C(=O)N[C@H](C(=O)O)Cc2ccc(cc2)NC1=O [Compound 382] | < 10 | < 10 | 10 to 50 |  |  | 
O=C1CCC(=O)N[C@H](Cc2cccs2)C(=O)N[C@@H](Cc2ccc(Cl)cc2Cl)C(=O)N[C@H](Cc2ccccc2)C(=O)N[C@H](C(=O)O)Cc2ccc(cc2)N1 [Compound 82] ([d2Thi][Phe(2,4-Cl2)][dF][Phe(4-NH2)]-OH; linker N-4 via Suc) | 10 to 30 | < 10 | < 10 |  |  | 
C[C@H](NC(=O)[C@@H]1Cc2ccc(cc2)OCC(=O)N[C@H](Cc2cccs2)C(=O)N[C@@H](Cc2ccc(-c3ccccc3)cc2)C(=O)N[C@H](CCc2ccccc2)C(=O)N1)C(=O)O [Compound 302] | < 10 | 10 to 50 | 10 to 50 |  |  | 
O=C(O)CCNC(=O)[C@H]1Cc2ccc(cc2)NC(=O)CCC(=O)N[C@H](CCc2ccccc2)C(=O)N[C@@H](Cc2ccc(C(F)(F)F)cc2)C(=O)N[C@H](Cc2ccccc2)C(=O)N1 [Compound 15] ([d(hPhe)][Phe(4-CF3)][dF][dPhe(4-NH2)][βAla]-OH; linker N-4 via Suc) | 10 to 30 | < 10 |  |  |  | 
O=C(O)CCCCCNC(=O)[C@@H]1Cc2ccc(cc2)OCC(=O)N[C@H](Cc2cccs2)C(=O)N[C@@H](Cc2ccc(-c3ccccc3)cc2)C(=O)N[C@H](CCc2ccccc2)C(=O)N1 [Compound 395] | < 10 | < 10 | < 10 |  |  | 
NCCCC(=O)N[C@H]1CC(=O)N[C@H](Cc2cccs2)C(=O)N[C@@H](Cc2ccc(-c3ccccc3)cc2)C(=O)N[C@H](Cc2ccccc2)C(=O)N[C@H](C(=O)O)Cc2ccc(cc2)NC1=O [Compound 381] | < 10 | < 10 | < 10 |  |  | 
O=C1CCC(=O)N[C@H](CCc2ccccc2)C(=O)N[C@@H](Cc2ccc(Cl)cc2Cl)C(=O)N[C@H](Cc2ccccc2)C(=O)N[C@@H](C(=O)O)Cc2ccc(cc2)N1 [Compound 112] ([d(hPhe)][Phe(2,4-Cl2)][dF][dPhe(4-NH2)]-OH; linker N-4 via Suc) | < 10 | < 10 |  |  |  | 
O=C1COc2ccc(cc2)C[C@@H](C(=O)N[C@@H](Cc2ccccc2)C(=O)O)NC(=O)[C@@H](CCc2ccc(C(F)(F)F)cc2)NC(=O)[C@H](Cc2ccccc2)NC(=O)[C@@H](Cc2ccc(C(F)(F)F)cc2)N1 [Compound 157] | < 10 | 50 to 80 | 10 to 50 |  |  | 
O=C1COc2ccc(cc2)C[C@@H](C(=O)N[C@@H](CCc2ccccc2)C(=O)O)NC(=O)[C@@H](CCc2ccccc2)NC(=O)[C@H](Cc2ccc(-c3ccccc3)cc2)NC(=O)[C@@H](Cc2cccs2)N1 [Compound 320] |  |  |  | < 10 | 10 to 50 | > 80
O=C(O)CCCNC(=O)[C@@H]1Cc2ccc(cc2)OCC(=O)N[C@@H](Cc2cccs2)C(=O)N[C@H](Cc2ccc(-c3ccccc3)cc2)C(=O)N[C@@H](Cc2ccccc2)C(=O)N1 [Compound 386] | < 10 | < 10 | < 10 |  |  | 
O=C1CCC(=O)N[C@H](CCc2ccccc2)C(=O)N[C@@H](Cc2ccc(Cl)cc2Cl)C(=O)N[C@H](Cc2ccccc2)C(=O)N[C@@H](C(=O)N[C@@H](Cc2ccccc2)C(=O)O)Cc2ccc(cc2)N1 [Compound 441] ([d(hPhe)][Phe(2,4-Cl2)][dF][dPhe(4-NH2)]F-OH; linker N-4 via Suc) | 10 to 30 |  |  |  |  | 
